From patent US9260739B2, “Method for the detection of acid production by cariogenic bacteria” (Ivoclar Vivadent AG, priority 2010, dated 2016)

tested on: S. sobrinus; assay: Acid production in vitro by pure culture, colour change of pH indicator; assay type: cell-based; conditions: carbon source at 20% in the reaction batch, only S. sobrinus, FIG. 1
Procedure: Stock cultures of the strain selected for the experiments were stored on CRYOBANK (Mast Diagnostica, CRYO/M) ceramic supports at a temperature of −80° C. For culturing, a ceramic ring was placed into 10 ml of nutrient medium and incubated 14-72 h. This culture was designated passage 0 (P0). Then, 100 μl of culture were inoculated into 10 ml of fresh medium and incubated for 24 h. Cultures of passage 2 were used for the subsequent experiments on acid production. The cultures were diluted in this case until an absorption at 650 nm of about 0.6-1.0 was obtained. The bacterial suspensions were centrifuged at 8000 rpm for 5 minutes. The culture supernatant was removed and the pellet was resuspended in the same volume of water (10 ml, deionized, sterile). The sample was centrifuged again (8000 rpm, 5 minutes) and the supernatant was removed. The pellet was subsequently resuspended in 1 ml of deionized water which corresponds to 1/10 of the original volume. […] Then, the appropriate pH was adjusted and the mixture was filled up to the calculated volume using deionized water. […] After addition of the bacterial suspension to the respective test solution, the colour change of the pH indicator was assessed visually against a reference sample (only test solution) at regular intervals. […]

| Structure (SMILES) | time within which acid formation can be detected |
| --- | --- |
| OC[C@H]1O[C@@](CO)(O[C@H]2O[C@H](CO)[C@@H](O)[C@H](O)[C@H]2O)[C@@H](O)[C@@H]1O [sucrose] | ≤ 15 min |

tested on: not listed separately; assay: pK of pH indicators; assay type: physicochemical; conditions: pH indicator
Procedure: In an alternative embodiment, the pH is determined using a pH indicator which changes colour on acid formation. The pH indicator is preferably added to the cariogenic bacteria together with the carbon source, e.g. by joint immobilization of pH indicator and carbon source on a test strip or by simultaneous addition of pH indicator and carbon source (preferably in the form of a single solution) to a diluted, undiluted or concentrated plaque or saliva sample. […] These comprise, e.g., the indicators bromocresol purple, bromocresol green, m-cresol purple, bromothymol blue, phenol red and chlorophenol red. […] The incubation time that must be applied until a colour change can be detected, depends on the carbon sources and test reagents used and also on their absolute and relative quantitative ratios to one another. In a preferred embodiment, the time period to a colour change of the pH indicator is less than 60 minutes, less than 45 minutes, less than 30 minutes, less than 20 minutes or less than 15 minutes after mixing bacteria, carbon source and indicator.

| Structure (SMILES) | pK |
| --- | --- |
| Cc1c(C2(c3cc(Br)c(O)c(Br)c3C)OS(=O)(=O)c3ccccc32)cc(Br)c(O)c1Br [Bromocresol green] | 4.7 |
| Cc1cc(O)ccc1C1(c2ccc(O)cc2C)OS(=O)(=O)c2ccccc21 [m-Cresol purple] | 8.2 |

Now from value to molecule:

| pK | Structure (SMILES) |
| --- | --- |
| 6 | Cc1cc(C2(c3cc(C)c(O)c(Br)c3)OS(=O)(=O)c3ccccc32)cc(Br)c1O [Bromocresol purple] |
| 7 | Cc1c(C2(c3cc(C(C)C)c(O)c(Br)c3C)OS(=O)(=O)c3ccccc32)cc(C(C)C)c(O)c1Br [Bromothymol blue] |
| 5.6 | O=S1(=O)OC(c2ccc(O)c(Cl)c2)(c2ccc(O)c(Cl)c2)c2ccccc21 [Chlorophenol red] |
